According to patent US9611275B2 (priority 2012, dated 2017):
Like-named read-outs stand apart in the source and are kept apart here.

Columns and labels:
human O-GlcNAcase = human O-GlcNAcase (Homo sapiens (Human), UniProt O60502); assay: biochemical; assay type: biochemical; settings: for Ki: read-out: OGA KI
[1] = target: O-GlcNAcase in rat PC-12 cells (Rattus norvegicus (Rat), UniProt Q8VIJ5); assay: cell-based
From the text: Assay for Determination of Cellular Activity for Compounds that Inhibit O-GlcNAcase Activity
Inhibition of O-GlcNAcase, which removes O-GlcNAc from cellular proteins, results in an increase in the level of O-GlcNAcylated protein in cells. An increase in O-GlcNAcylated protein can be measured by an antibody, such as RL-2, that binds to O-GlcNAcylated protein. The amount of O-GlcNAcylated protein:RL2 antibody interaction can be measured by enzyme linked immunosorbant assay (ELISA) procedures.
A variety of tissue culture cell lines, expressing endogenous levels of O-GlcNAcase, can be utilized; examples include rat PC-12, and human U-87, or SK-N-SH cells. In this assay, rat PC-12 cells were plated in 96-well plates with approximately 10,000 cells/well. Compounds to be tested were dissolved in DMSO, either 2 or 10 mM stock solution, and then diluted with DMSO and water in a two-step process using a Tecan workstation. […] To prepare a cell lysate, the media from compound treated cells was removed, the cells were washed once with phosphate buffered saline (PBS) and then lysed for 5 minutes at room temperature in 50 μL of Phosphosafe reagent (Novagen Inc, Madison, Wis.) with protease inhibitors and PMSF. The cell lysate was collected and transferred to a new plate, which was then either coated to assay plates directly or frozen −80° C. until used in the ELISA procedure. If desired, the total protein concentration of samples is determined using 20 μL of the sample using the BCA method.
The plate was sealed and incubated at 37° C. for 2 hr with gentle shaking. The wells were then washed 3-times with 300 μl/well wash buffer. […] The plate was incubated for 60 min at 37° C. with gentle shaking. Each well was then washed 3-times with 300 μl/well wash buffer. The detection reagent was added, 100 μL/well of Amplex Ultra RED reagent (prepared by adding 30 μL of 10 mM Amplex Ultra Red stock solution to 10 ml PBS with 18 μL 3% hydrogen peroxide, H2O2). The detection reaction was incubated for 15 minutes at room temperature and then read with excitation at 530 nm and emission at 590 nm.

[2] = Assay for determination of apparent permeability (Papp), bi-directional transport; settings: pig, LLC-PK1
[3] = rat PC-12 cells, 24 hours treatment, increase in O-GlcNAcylated protein, read-out: Cell based ELISA EC50
[4] = purified human O-GlcNAcase 0.7 nM, pH 7.0, room temperature, Cheng-Prusoff

Chain of human O-GlcNAcase (O60502 whole entry): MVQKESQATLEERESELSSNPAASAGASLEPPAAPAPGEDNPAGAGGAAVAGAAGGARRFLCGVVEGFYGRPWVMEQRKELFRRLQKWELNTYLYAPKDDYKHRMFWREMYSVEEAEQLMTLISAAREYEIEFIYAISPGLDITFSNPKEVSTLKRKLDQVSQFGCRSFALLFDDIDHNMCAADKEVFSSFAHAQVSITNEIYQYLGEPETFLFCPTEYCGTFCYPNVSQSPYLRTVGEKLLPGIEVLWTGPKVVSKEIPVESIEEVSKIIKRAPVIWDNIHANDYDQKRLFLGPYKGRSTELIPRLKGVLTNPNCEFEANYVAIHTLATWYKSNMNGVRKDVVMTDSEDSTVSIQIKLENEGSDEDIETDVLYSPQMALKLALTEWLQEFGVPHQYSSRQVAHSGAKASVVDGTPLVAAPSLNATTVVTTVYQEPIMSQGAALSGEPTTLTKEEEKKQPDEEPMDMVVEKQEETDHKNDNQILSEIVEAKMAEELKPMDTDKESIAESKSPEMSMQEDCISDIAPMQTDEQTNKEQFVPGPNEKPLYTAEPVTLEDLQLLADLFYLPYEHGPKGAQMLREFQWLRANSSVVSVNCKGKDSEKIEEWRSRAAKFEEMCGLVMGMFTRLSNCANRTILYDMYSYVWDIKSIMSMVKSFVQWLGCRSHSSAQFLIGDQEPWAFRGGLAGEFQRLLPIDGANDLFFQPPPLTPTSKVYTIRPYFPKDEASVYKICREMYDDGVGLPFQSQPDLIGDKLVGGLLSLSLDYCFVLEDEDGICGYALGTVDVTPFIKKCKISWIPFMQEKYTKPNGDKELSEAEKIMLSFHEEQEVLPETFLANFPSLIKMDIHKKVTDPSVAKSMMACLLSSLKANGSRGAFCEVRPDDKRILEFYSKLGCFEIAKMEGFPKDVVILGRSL
Chain of O-GlcNAcase in rat PC-12 cells (Q8VIJ5 whole entry): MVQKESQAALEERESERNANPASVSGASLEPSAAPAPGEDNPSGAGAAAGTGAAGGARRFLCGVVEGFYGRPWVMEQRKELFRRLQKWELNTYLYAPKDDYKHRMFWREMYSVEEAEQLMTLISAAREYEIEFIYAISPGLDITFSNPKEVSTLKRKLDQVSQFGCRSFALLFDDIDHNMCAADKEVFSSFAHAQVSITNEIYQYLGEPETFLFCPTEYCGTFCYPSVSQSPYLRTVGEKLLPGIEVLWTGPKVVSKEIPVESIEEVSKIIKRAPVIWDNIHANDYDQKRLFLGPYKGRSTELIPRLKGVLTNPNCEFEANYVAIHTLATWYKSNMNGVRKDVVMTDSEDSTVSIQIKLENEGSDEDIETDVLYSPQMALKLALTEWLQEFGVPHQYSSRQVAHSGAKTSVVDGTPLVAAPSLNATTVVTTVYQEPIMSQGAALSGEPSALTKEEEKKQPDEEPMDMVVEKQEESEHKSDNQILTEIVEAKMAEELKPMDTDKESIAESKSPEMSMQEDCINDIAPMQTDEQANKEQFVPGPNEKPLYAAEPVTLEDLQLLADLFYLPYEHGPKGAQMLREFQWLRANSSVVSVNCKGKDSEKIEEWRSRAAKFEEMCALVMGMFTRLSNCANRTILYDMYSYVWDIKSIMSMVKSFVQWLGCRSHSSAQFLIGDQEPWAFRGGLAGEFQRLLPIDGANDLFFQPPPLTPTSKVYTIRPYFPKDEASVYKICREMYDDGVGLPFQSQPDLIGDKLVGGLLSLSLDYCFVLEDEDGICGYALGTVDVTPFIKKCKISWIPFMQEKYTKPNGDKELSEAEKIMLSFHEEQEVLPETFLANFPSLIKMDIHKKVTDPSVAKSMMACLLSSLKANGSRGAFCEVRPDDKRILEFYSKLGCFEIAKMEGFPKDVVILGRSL

Row | Compound | Ki (human O-GlcNAcase) | EC50 [1, 3] | Papp at 3 h, 1 μM [2] | Ki (human O-GlcNAcase; [4]) | also measured
1 | CN(C)C1=N[C@@H]2[C@@H](O)[C@H](O)[C@@H](C(OCc3cccc(F)c3)C(F)(F)F)O[C@@H]2S1 (stereo in doubt) [Example 64, (3aR,5S,6S,7R,7aR)-2-(dimethylamino)-5-((S)-2,2,2-trifluoro-1-(3-fluorobenzyloxy)ethyl)-5,6,7,7a-tetrahydro-3aH-pyrano[3,2-d]thiazole-6,7-diol] | 1.32 nM | 8.43 nM | 29.9 ×10⁻⁶ cm/s |  | 
2 | CNC1=N[C@@H]2[C@H]3OC(C)(C)O[C@@H]3[C@@H](C(OCc3ccc(F)cc3)C(F)(F)F)O[C@@H]2S1 (stereo in doubt) [Example 117, (1R,2R,6R,8S,9S)—N,11,11-trimethyl-8-[(1S)-2,2,2-trifluoro-1-[(4-fluorophenyl)methoxy]ethyl]-7,10,12-trioxa-5-thia-3-azatricyclo[7.3.0.0[2,6]]dodec-3-en-4-amine] |  |  |  |  | KI values for inhibition of O-GlcNAcase (human O-GlcNAcase; units given within the value): does not possess inhibitory activity in the aforementioned range
3 | CN(C)C1=N[C@@H]2[C@@H](O)[C@H](O)[C@@H]([C@@H](N(C)C)C(F)(F)F)O[C@@H]2S1 [Example 17, (3aR,5R,6S,7R,7aR)-2-(dimethylamino)-5-((R)-1-(dimethylamino)-2,2,2-trifluoroethyl)-5,6,7,7a-tetrahydro-3aH-pyrano[3,2-d]thiazole-6,7-diol] |  |  | 31.2 ×10⁻⁶ cm/s | 41.9 nM | 
4 | CN(C)C1=N[C@@H]2[C@@H](O)[C@H](O)[C@@H]([C@@H](OCCCCCF)C(F)(F)F)O[C@@H]2S1 [Example 31, (3aR,5S,6S,7R,7aR)-2-(dimethylamino)-5-((R)-2,2,2-trifluoro-1-(5-fluoropentyloxy)ethyl)-5,6,7,7a-tetrahydro-3aH-pyrano[3,2-d]thiazole-6,7-diol] |  | 22.3 nM | 31.3 ×10⁻⁶ cm/s | 4.4 nM | 
5 | CN(C)C1=N[C@@H]2[C@@H](O)[C@H](O)[C@@H]([C@@H](OCCC3CCCCC3)C(F)(F)F)O[C@@H]2S1 [Example 34, (3aR,5S,6S,7R,7aR)-5-((R)-1-(2-cyclohexylethoxy)-2,2,2-trifluoroethyl)-2-(dimethylamino)-5,6,7,7a-tetrahydro-3aH-pyrano[3,2-d]thiazole-6,7-diol] |  | 46.4 nM | 33.3 ×10⁻⁶ cm/s | 2.27 nM | 
6 | CN(C)C1=N[C@@H]2[C@@H](O)[C@H](O)[C@@H]([C@@H](OCc3ccccc3)C(F)(F)F)O[C@@H]2S1 [Example 39, (3aR,5S,6S,7R,7aR)-5-((R)-1-(benzyloxy)-2,2,2-trifluoroethyl)-2-(dimethylamino)-5,6,7,7a-tetrahydro-3aH-pyrano[3,2-d]thiazole-6,7-diol] |  | 36.2 nM |  | 2.43 nM | 
7 | CN(C)C1=N[C@@H]2[C@@H](O)[C@H](O)[C@@H]([C@@H](OCc3cccnc3)C(F)(F)F)O[C@@H]2S1 [Example 42, (3aR,5S,6S,7R,7aR)-2-(dimethylamino)-5-((R)-2,2,2-trifluoro-1-(pyridin-3-ylmethoxy)ethyl)-5,6,7,7a-tetrahydro-3aH-pyrano[3,2-d]thiazole-6,7-diol] |  | 120 nM | 15.2 ×10⁻⁶ cm/s | 2.36 nM | 
8 | CN(C)C1=N[C@@H]2[C@@H](O)[C@H](O)[C@@H]([C@@H](OCc3ccc(-c4ccccc4)cc3)C(F)(F)F)O[C@@H]2S1 [Example 44, (3aR,5S,6S,7R,7aR)-5-((R)-1-(biphenyl-4-ylmethoxy)-2,2,2-trifluoroethyl)-2-(dimethylamino)-5,6,7,7a-tetrahydro-3aH-pyrano[3,2-d]thiazole-6,7-diol] | 3.05 nM |  |  |  | 
9 | CN(C)C1=N[C@@H]2[C@@H](O)[C@H](O)[C@@H]([C@@H](OCc3ccc(Cc4ccccc4)cc3)C(F)(F)F)O[C@@H]2S1 [Example 45, (3aR,5S,6S,7R,7aR)-5-((R)-1-(4-benzylbenzyloxy)-2,2,2-trifluoroethyl)-2-(dimethylamino)-5,6,7,7a-tetrahydro-3aH-pyrano[3,2-d]thiazole-6,7-diol] | 1.97 nM |  |  |  | EC50 [1]: 128 nM
10 | COc1ccc(CO[C@H]([C@H]2O[C@@H]3SC(N(C)C)=N[C@@H]3[C@@H](O)[C@@H]2O)C(F)(F)F)cc1 [Example 52, (3aR,5S,6S,7R,7aR)-2-(dimethylamino)-5-((R)-2,2,2-trifluoro-1-(4-methoxybenzyloxy)ethyl)-5,6,7,7a-tetrahydro-3aH-pyrano[3,2-d]thiazole-6,7-diol] |  | 21.3 nM | 30.5 ×10⁻⁶ cm/s | 1.38 nM | 
11 | CN(C)C1=N[C@@H]2[C@@H](O)[C@H](O)[C@@H]([C@@H](OCc3ccc(OCCF)cc3)C(F)(F)F)O[C@@H]2S1 [Example 55, (3aR,5S,6S,7R,7aR)-2-(dimethylamino)-5-((R)-2,2,2-trifluoro-1-(4-(2-fluoroethoxy)benzyloxy)ethyl)-5,6,7,7a-tetrahydro-3aH-pyrano[3,2-d]thiazole-6,7-diol] | 0.65 nM |  | 27.1 ×10⁻⁶ cm/s |  | EC50 [1]: 79.5 nM
12 | CN(C)C1=N[C@@H]2[C@@H](O)[C@H](O)[C@@H]([C@@H](OCc3ccc(Oc4ccccc4)cc3)C(F)(F)F)O[C@@H]2S1 [Example 57, (3aR,5S,6S,7R,7aR)-2-(dimethylamino)-5-((R)-2,2,2-trifluoro-1-(4-phenoxybenzyloxy)ethyl)-5,6,7,7a-tetrahydro-3aH-pyrano[3,2-d]thiazole-6,7-diol] | 1.11 nM |  | 16.4 ×10⁻⁶ cm/s |  | EC50 [1]: 62.1 nM
13 | COc1ccc(CO[C@H]([C@H]2O[C@@H]3SC(N(C)C)=N[C@@H]3[C@@H](O)[C@@H]2O)C(F)(F)F)cc1C(F)(F)F [Example 58, (3aR,5S,6S,7R,7aR)-2-(dimethylamino)-5-((R)-2,2,2-trifluoro-1-(4-methoxy-3-(trifluoromethyl)benzyloxy)ethyl)-5,6,7,7a-tetrahydro-3aH-pyrano[3,2-d]thiazole-6,7-diol] |  | 76.9 nM | 26.2 ×10⁻⁶ cm/s | 0.84 nM | 
14 | CN(C)C1=N[C@@H]2[C@@H](O)[C@H](O)[C@@H]([C@@H](OCc3ccccc3F)C(F)(F)F)O[C@@H]2S1 [Example 61, (3aR,5S,6S,7R,7aR)-2-(dimethylamino)-5-((R)-2,2,2-trifluoro-1-(2-fluorobenzyloxy)ethyl)-5,6,7,7a-tetrahydro-3aH-pyrano[3,2-d]thiazole-6,7-diol] | 1.98 nM |  | 29 ×10⁻⁶ cm/s |  | EC50 [1]: 7.73 nM
15 | CN(C)C1=N[C@@H]2[C@@H](O)[C@H](O)[C@@H]([C@@H](OCc3ccc(F)cc3)C(F)(F)F)O[C@@H]2S1 [Example 65] |  | 27.7 nM | 28.8 ×10⁻⁶ cm/s | 1.02 nM | 
16 | CN(C)C1=N[C@@H]2[C@@H](O)[C@H](O)[C@@H]([C@@H](OCc3ccc(C(F)(F)F)cc3)C(F)(F)F)O[C@@H]2S1 [Example 66, (3aR,5S,6S,7R,7aR)-2-(dimethylamino)-5-((R)-2,2,2-trifluoro-1-(4-(trifluoromethyl)benzyloxy)ethyl)-5,6,7,7a-tetrahydro-3aH-pyrano[3,2-d]thiazole-6,7-diol] | 2.32 nM |  | 28.2 ×10⁻⁶ cm/s |  | EC50 [1]: 13.5 nM
17 | CN(C)C1=N[C@@H]2[C@@H](O)[C@H](O)[C@@H]([C@@H](OCc3ccc(CCF)cc3)C(F)(F)F)O[C@@H]2S1 [Example 70, (3aR,5S,6S,7R,7aR)-2-(dimethylamino)-5-((R)-2,2,2-trifluoro-1-(4-(2-fluoroethyl)benzyloxy)ethyl)-5,6,7,7a-tetrahydro-3aH-pyrano[3,2-d]thiazole-6,7-diol] |  | 17.8 nM | 29.5 ×10⁻⁶ cm/s | 0.61 nM | 
18 | CN(C)C1=N[C@@H]2[C@@H](O)[C@H](O)[C@@H]([C@@H](OCc3ccc(CCCF)cc3)C(F)(F)F)O[C@@H]2S1 [Example 71, (3aR,5S,6S,7R,7aR)-2-(dimethylamino)-5-((R)-2,2,2-trifluoro-1-(4-(3-fluoropropyl)benzyloxy)ethyl)-5,6,7,7a-tetrahydro-3aH-pyrano[3,2-d]thiazole-6,7-diol] |  | 30.8 nM | 34.6 ×10⁻⁶ cm/s | 0.78 nM | 
19 | CN(C)C1=N[C@@H]2[C@@H](O)[C@H](O)[C@@H]([C@@](CCc3ccccc3)(OCc3ccccc3)C(F)(F)F)O[C@@H]2S1 [Example 76, (3aR,5S,6S,7R,7aR)-5-((R)-2-(benzyloxy)-1,1,1-trifluoro-4-phenylbutan-2-yl)-2-(dimethylamino)-5,6,7,7a-tetrahydro-3aH-pyrano[3,2-d]thiazole-6,7-diol] |  |  |  | 726 nM | 
20 | CNC1=N[C@@H]2[C@@H](O)[C@H](O)[C@@H]([C@@H](OCc3ccc(C)cc3)C(F)(F)F)O[C@@H]2S1 [Example 85, (3aR,5S,6S,7R,7aR)-2-(methylamino)-5-((R)-2,2,2-trifluoro-1-(4-mcthylbenzyloxy)ethyl)-5,6,7,7a-tetrahydro-3aH-pyrano[3,2-d]thiazole-6,7-diol] |  |  | 26.3 ×10⁻⁶ cm/s | 3.11 nM | 
21 | CNC1=N[C@@H]2[C@@H](O)[C@H](O)[C@@H]([C@@H](OCc3ccc(CCF)cc3)C(F)(F)F)O[C@@H]2S1 [Example 87, (3aR,5S,6S,7R,7aR)-2-(methylamino)-5-((R)-2,2,2-trifluoro-1-(4-(2-fluoroethyl)benzyloxy)ethyl)-5,6,7,7a-tetrahydro-3aH-pyrano[3,2-d]thiazole-6,7-diol] | 0.71 nM |  |  |  | EC50 [1]: 46.4 nM
22 | CCNC1=N[C@@H]2[C@@H](O)[C@H](O)[C@@H]([C@@H](OCc3ccc(OC)cc3)C(F)(F)F)O[C@@H]2S1 [Example 96, (3aR,5S,6S,7R,7aR)-2-(ethylamino)-5-((R)-2,2,2-trifluoro-1-(4-methoxybenzyloxy)ethyl)-5,6,7,7a-tetrahydro-3aH-pyrano[3,2-d]thiazole-6,7-diol] |  |  | 30.1 ×10⁻⁶ cm/s | 12.5 nM | 
23 | CNC1=N[C@@H]2[C@@H](O)[C@H](O)[C@@H]([C@](C)(O)C(F)(F)F)O[C@@H]2S1 [Example 158, (3aR,5S,6S,7R,7aR)-2-(methylamino)-5-((S)-1,1,1-trifluoro-2-hydroxypropan-2-yl)-5,6,7,7a-tetrahydro-3aH-pyrano[3,2-d]thiazole-6,7-diol] |  |  | 2.9 ×10⁻⁶ cm/s |  | Ki (human O-GlcNAcase; comparative compounds described in PCT/US11/059668): 1.29 nM
